According to US20090264383A1, “Inhibitor of Adenylyl Cyclase for Treating a Disorder of the Circadian Rhythm” (Medical Research Council, priority 2006, published 2009):
“Also recorded” adds a separate entry of the source.

Experiments:
Water solubility = format: physicochemical
SCN = assay: Free-running period of wheel-running behaviour, THFA infused to SCN by minipump and central cannula; format: in vivo; conditions: chronic central THFA vs vehicle; continuous dim red light; nine mice
Procedure: (a) Representative double-plotted, actograms of (left) vehicle- and (right) THFA-treated mice entrained to a photoschedule of 12 hours light (shaded) and 12 hours dark and fitted with osmotic mini-pump and central cannula directed at SCN (asterisk) Mice were then released into continuous dim-red light and free-running period determined Note longer period in THFA-treated mice.
(§1) Recordings of luciferase activity from organotypic slices of SCN or peripheral tissues were made from 5-7 day old pups from PER2::LUC and, Per1::LUC mice using either photomultiplier assemblies for whole tissue emission or CCD camera for single SCN cell imaging (Hamamatsu Photonics Ltd, U.K.) as described May Wood et al 2006 Curr. Biol. Vol. 16 pp 599-605. cAMP-ELISA kit was purchased from R&D systems (Wiesbaden, Germany). NIH 3T3 cells were cultured as described (Kume et al 1999 Cell Vol 98 pp 193-205) and transfected using Genejuice (Novagen, San Diego, Calif.). All drugs were purchased from Sigma-Aldrich (Poole, UK) except PKA/Epac-active cAMP analogues (Axxora; Grünberg; Germany) and KT5720 (Calbiochem, Nottingbam, UK). Drugs were solubilized in medium or dimethylsulfoxide (DMSO) to make stock solutions 50-1000× the working solutions. […] Behavioural rhythms, recorded by running wheel and passive infra-red movement detectors, were analysed in Clocklab (Actimetrics, Evanston Ill.). […]

Clock mutant SCN = assay: Circadian period in Clock heterozygous and homozygous mutant SCN; format: cell-based, mice
Procedure: Recordings of luciferase activity from organotypic slices of SCN or peripheral tissues were made from 5-7 day old pups from PER2::LUC and, Per1::LUC mice using either photomultiplier assemblies for whole tissue emission or CCD camera for single SCN cell imaging (Hamamatsu Photonics Ltd, U.K.) as described May Wood et al 2006 Curr. Biol. Vol. 16 pp 599-605. cAMP-ELISA kit was purchased from R&D systems (Wiesbaden, Germany). NIH 3T3 cells were cultured as described (Kume et al 1999 Cell Vol 98 pp 193-205) and transfected using Genejuice (Novagen, San Diego, Calif.). All drugs were purchased from Sigma-Aldrich (Poole, UK) except PKA/Epac-active cAMP analogues (Axxora; Grünberg; Germany) and KT5720 (Calbiochem, Nottingbam, UK). Drugs were solubilized in medium or dimethylsulfoxide (DMSO) to make stock solutions 50-1000× the working solutions. [DMSO] was never greater than 0.4%. RNA-interference against Epac1 and Epac 2 used pre-validated sequences as instructed (Validated Stealth RNAi, Invitrogen, CA). Western Blots were performed as Reddy et al (2006 Curr. Biol. Vol 16 oo 1107-15). Behavioural rhythms, recorded by running wheel and passive infra-red movement detectors, were analysed in Clocklab (Actimetrics, Evanston Ill.). […]

organotypic SCN slices = assay: Bioluminescence recording of circadian gene expression in organotypic SCN slices (mPer1::luc / PER2::LUC); format: cell-based, mice; conditions: for effect on circadian period / effect on circadian amplitude / gene expression: wild-type mPer1::luc / PER2::LUC SCN slices; for synchrony of SCN neurons (CCD imaging): 1.0 μM MDL for over 7 days, PER2::LUC slice; for rescue of circadian gene expression in MDL-treated SCN slices: PER2-LUC SCN slices pre-treated with MDL (2.5 μM), Epac agonist 100 μM
Procedure: (§2) Per1::luciferase and; Per2-luc transgenic mice were used. For organotypic slice culture, brains were removed from pups 5-10 days old and sectioned at 300 um with a McIlwain “Tissue Chopper.” Slices were sorted and trimmed to contain principally SCN tissue and placed onto a Millipore membrane insert (PICMORG) for culture at 37° C. in 5% CO2 as described previously (Gainer et al, 1998).
Recordings of luciferase activity from organotypic slices of SCN or peripheral tissues were made from 5-7 day old pups from PER2::LUC and, Per1::LUC mice using either photomultiplier assemblies for whole tissue emission or CCD camera for single SCN cell imaging (Hamamatsu Photonics Ltd, U.K.) as described May Wood et al 2006 Curr. Biol. Vol. 16 pp 599-605. cAMP-ELISA kit was purchased from R&D systems (Wiesbaden, Germany). NIH 3T3 cells were cultured as described (Kume et al 1999 Cell Vol 98 pp 193-205) and transfected using Genejuice (Novagen, San Diego, Calif.). […] Drugs were solubilized in medium or dimethylsulfoxide (DMSO) to make stock solutions 50-1000× the working solutions. [DMSO] was never greater than 0.4%. RNA-interference against Epac1 and Epac 2 used pre-validated sequences as instructed (Validated Stealth RNAi, Invitrogen, CA). Western Blots were performed as Reddy et al (2006 Curr. Biol. Vol 16 oo 1107-15). Behavioural rhythms, recorded by running wheel and passive infra-red movement detectors, were analysed in Clocklab (Actimetrics, Evanston Ill.). Central cannulae directed stereotaxically at the SCN and sub-cutaneous minipumps (Alzet® model 1002 pump and brain infusion kit II) for drug infusion were fitted as instructed (Durect Corp. Cupertino, Calif.).
(§3) Statistical analysis was performed using Prism GraphPad™ and Statview™. Periods were calculated over ≧3 days recoding For comparative purposes, transcriptional amplitude from PMT recordings was calculated as 100× (post-treatment emission peak-trough/pre-treatment peak-trough). In all cases error bars indicate SEM about the mean where n≧3.

NIH 3T3 cells [1] = assay: Circadian gene expression in NIH 3T3 cells transfected with mBmal1::luc reporter; format: cell-based, mouse; conditions: for effect on circadian period: 3T3 fibroblasts; for effect on circadian gene expression / output: mBmal1::luc reporter
From the text: Inhibition of the Gsα-binding site of AC caused a dose-dependent, reversible, dampening of circadian gene expression from Per1::luciferase organotypic SCN slice cultures, monitored by photomultiplier tubes. To determine the generality of this effect, we examined 3-T3 fibroblast cells. Abrogation of the endogenous oscillation of cAMP concentration stopped circadian gene expression as reported by Bmal1::luciferase reporter constructs P-site AC inhibition prolonged fibroblast period from ca. 21 hours to ca. 30 hours.
(§4) Recordings of luciferase activity from organotypic slices of SCN or peripheral tissues were made from 5-7 day old pups from PER2::LUC and, Per1::LUC mice using either photomultiplier assemblies for whole tissue emission or CCD camera for single SCN cell imaging (Hamamatsu Photonics Ltd, U.K.) as described May Wood et al 2006 Curr. Biol. Vol. 16 pp 599-605. cAMP-ELISA kit was purchased from R&D systems (Wiesbaden, Germany). NIH 3T3 cells were cultured as described (Kume et al 1999 Cell Vol 98 pp 193-205) and transfected using Genejuice (Novagen, San Diego, Calif.). All drugs were purchased from Sigma-Aldrich (Poole, UK) except PKA/Epac-active cAMP analogues (Axxora; Grünberg; Germany) and KT5720 (Calbiochem, Nottingbam, UK). Drugs were solubilized in medium or dimethylsulfoxide (DMSO) to make stock solutions 50-1000× the working solutions. [DMSO] was never greater than 0.4%. RNA-interference against Epac1 and Epac 2 used pre-validated sequences as instructed (Validated Stealth RNAi, Invitrogen, CA). Western Blots were performed as Reddy et al (2006 Curr. Biol. Vol 16 oo 1107-15). Behavioural rhythms, recorded by running wheel and passive infra-red movement detectors, were analysed in Clocklab (Actimetrics, Evanston Ill.). Central cannulae directed stereotaxically at the SCN and sub-cutaneous minipumps (Alzet® model 1002 pump and brain infusion kit II) for drug infusion were fitted as instructed (Durect Corp. Cupertino, Calif.).
as §3

peripheral tissues = assay: Circadian recording in organotypic cultures of peripheral tissues from mPER2::LUC mice; format: cell-based
Procedure: as §1, with “solutions. [DMSO] was never greater than 0.4%.” for “solutions.”
Statistical analysis was performed using Prism GraphPad™ and Statview™. Periods were calculated over ≧3 days recoding For comparative purposes, transcriptional amplitude from PMT recordings was calculated as 100× (post-treatment emission peak-trough/pre-treatment peak-trough). […]

intact human neutrophils = conditions: Simchowitz et al 1983; cited from earlier work
cAMP levels = assay: cAMP ELISA in synchronised NIH 3T3 fibroblast cultures; format: cell-based, mouse; conditions: for cAMP levels: MDL at highest doses used
Procedure: as §2, §4

circadian period = conditions: 0.3% lithium; 25% D2O; cited from earlier work
adenylyl cyclase = conditions: irreversibly binds the Gsα site; cited from earlier work
NIH 3T3 cells [2] = assay: Luciferase expression from control non-circadian promoter in NIH 3T3 cells; format: cell-based, mouse
JNK phosphorylation = assay: Western blot of 3T3 cell extracts (JNK and CREB phosphorylation); format: cell-based, mouse; conditions: for JNK phosphorylation (pJNK): 3T3 cells, MDL 5.0 μm 40 hours, Epac agonist 100 μM, 2 hours; for CREB phosphorylation (pCREB): 3T3 cells given MDL, Epac agonist
Procedure: Epac had no effect on CREB phosphorylation.
as §4

circadian clock = conditions: administered in the evening; cited from earlier work

9-(Tetrahydro-2′-furyl)adenine [THFA]
water solubility (Water solubility): water-soluble; also recorded: most readily water soluble | free-running circadian period (SCN): lengthens circadian period; also recorded: lengthening of free-running period; also recorded: significantly (p<0:01, t-test) lengthened | effect on circadian period (Clock mutant SCN): prolongs circadian period; also recorded: additive to that of the Clock mutation | saturating concentration of period lengthening (one-site inhibition model) (organotypic SCN slices; SCN slices): around 2 mM | circadian period under combined AC and JNK inhibition (organotypic SCN slices; THFA together with JNK inhibition, SCN and fibroblast clockwork): around 36 hours | period after removal of the drug (organotypic SCN slices; in vitro, after chronic incubation with THFA): approx. 24 hours | circadian period (organotypic SCN slices; mPer1::luc and mPER2-LUC SCN slices, dose-dependent increase from ca. 24): ~31 h | effect on circadian period (organotypic SCN slices): reversible increase of circadian period; also recorded: Extended circadian period; also recorded: Reversible period lengthening; also recorded: period effect; also recorded: rapidly reversible upon drug washout; also recorded: increased period in individual neurons | probable maximum period increase (NIH 3T3 cells [1]; 1.2 mM THFA): approximately 9 hours | circadian period (NIH 3T3 cells [1]; 1.2 mM THFA, untreated about 21 hours): about 30 hours | effect on circadian period (NIH 3T3 cells [1]): Dose-dependent saturable period lengthening | circadian period (NIH 3T3 cells [1]; fibroblasts transfected with mBmal::luc reporter, lengthening from ca. 21): ~31 h | effect on circadian period (peripheral tissues; 2 mM THFA, all peripheral tissues tested): lengthens period; also recorded: dramatic increase in circadian period; also recorded: increases period in all tissues tested | toxicity (intact human neutrophils): non-toxic | basal cAMP levels (cAMP levels; THFA): maintains basal levels; also recorded: without affecting its nadir; also recorded: did not alter basal levels of cAMP | peak cAMP levels (cAMP levels; THFA): suppresses peak levels; also recorded: reduces the detectable, endogenous, biphasic rise in cAMP; also recorded: attenuated peak levels

C[C@H]1O[C@@H](n2cnc3c(N)ncnc32)C[C@@H]1O [2′,5′-dideoxyadenosine, 2′,5′-Dideoxyadenosine]
solubility (Water solubility; water, read-out: water soluble up to): ≥ 125 mM | effect on circadian period (organotypic SCN slices): Reversible period lengthening; also recorded: Period was lengthened

[2H]O[2H] [D2O]
lengthening of period (circadian period): approximately 5%

CC(C)Cn1c(=O)n(C)c(=O)c2[nH]cnc21 [IBMX]
effect on circadian period (NIH 3T3 cells [1]): lengthened period in fibroblasts | effect of THFA combined with IBMX on circadian period (NIH 3T3 cells [1]; THFA 1 mM plus IBMX 300 uM): did not enhance the effect of THFA

CCCCCCOC(=O)[C@]1(O)C[C@@H]2O[C@@]1(C)n1c3ccccc3c3c4c(c5c6ccccc6n2c5c31)C(=O)NC4 [KT5720]
effect on circadian amplitude / gene expression (organotypic SCN slices): no significant effect | effect on circadian period (organotypic SCN slices): no significant effect

Cl.c1ccc(C2CCCC2NC2=NCCCCCCCCCCC2)cc1 (stereo not drawn) [MDL-12,330A]
IC50 (adenylyl cyclase): 250 µM | synchrony of SCN neurons (CCD imaging) (organotypic SCN slices): desynchronisation | synchrony of SCN neurons (CCD imaging) (organotypic SCN slices; listed as MDL): became desynchronised | effect on circadian amplitude / gene expression (organotypic SCN slices): reversible suppression of circadian protein expression; also recorded: reversible, dose-dependent dampening of circadian gene expression; also recorded: loss of circadian amplitude; also recorded: dampens transcriptional amplitude | effect on circadian period (organotypic SCN slices): not affected | effect on circadian amplitude / gene expression (organotypic SCN slices; listed as MDL): rapid, dose-dependent dampening of circadian cycling; also recorded: lost circadian amplitude | luciferase expression from control, non-circadian promoter (NIH 3T3 cells [2]): no effect on luciferase expression | effect on circadian gene expression / output (NIH 3T3 cells [1]): dose dependent suppression of circadian gene expression | effect on circadian gene expression / output (NIH 3T3 cells [1]; listed as MDL): Reversible, dose-dependent suppression of circadian output | JNK phosphorylation (pJNK) (JNK phosphorylation): decline in JNK phosphorylation | effect on circadian output (peripheral tissues; organotypic kidney slices from mPER-2-LUC mice): Reversible, dose-dependent suppression of circadian output | cAMP levels (cAMP levels): loss of measurable cAMP | cAMP levels (cAMP levels; listed as MDL): suppressed cAMP levels to below the sensitivity of detection

COc1ccc2[nH]cc(CCNC(C)=O)c2c1 [Melatonin]
phase resetting effect on the circadian clock (circadian clock): approximately 30 minutes/day

COC1C2OP(O)(=S)OCC2OC1n1c(Sc2ccc(Cl)cc2)nc2c(N)ncnc21 (stereo not drawn) [Sp-8-CPT-2′-O-Me-cAMPS]
rescue of circadian gene expression in MDL-treated SCN slices (organotypic SCN slices): dramatically restored circadian output | rescue of circadian gene expression in MDL-treated SCN slices (organotypic SCN slices; listed as Epac agonist): can be rescued; also recorded: acute activation and synchronisation of cellular circadian gene expression; also recorded: significantly increased luciferase activity; also recorded: transiently activated and re-synchronised circadian gene expression | effect on circadian amplitude / gene expression (organotypic SCN slices): no significant effect | effect on circadian period (organotypic SCN slices): no significant effect | CREB phosphorylation (pCREB) (JNK phosphorylation; listed as Epac): no effect | CREB phosphorylation (pCREB) (JNK phosphorylation; listed as Epac agonist): not pCREB | JNK phosphorylation (pJNK) (JNK phosphorylation; listed as Epac): significant increase in JNK activation | JNK phosphorylation (pJNK) (JNK phosphorylation; listed as Epac agonist): reverses the decline in JNK phosphorylation; also recorded: increased pJNK
